Assay results as given in PMC7046553, “Backbone Cyclization and Dimerization of LL-37-Derived Peptides Enhance Antimicrobial Activity and Proteolytic Stability” (Frontiers in Microbiology, 2020).
≈ marks a conversion by molar mass, not a printed value. Where two headings read alike, the source gives them in different places. Where a SMILES comes first, the peptide text is derived from it.

What was measured:
[1] = system: human lymphoma cell line U-937 GTB; conditions: read-out: IC50 (cytotoxicity); 72 hours incubation; tested in parallel with the dimers; ref Gunasekera et al., 2018; cited from earlier work
[2] = assay type: cell-based, human
Text: FIGURE 4 Cytotoxicity. Cytotoxicity on a human lymphoma cell line (U-937 GTB). The cell viability derives from the hydrolysis of the probe fluorescein diacetate by esterases in cells with intact plasma membranes. Results are means from triplicates with standard deviation, and the IC50 level is highlighted by a double line. The dose–response curve for LL-37 has been constrained within 100% to compensate for elevated fluorescein hydrolysis by intermediate LL-37 concentrations. The data for KR-12, Q5K,D9K and LL-37 are from our previous work ([Gunasekera et al., 2018]), but tested in parallel with the dimers and included here for consistency.
The cytotoxicity of the peptides was tested on the human lymphoma cell line U-937 GTB in a fluorometric microculture cytotoxicity assay (FMCA), described in detail previously ([Sundström and Nilsson, 1976]; [Lindhagen et al., 2008]). […] After incubation for 40 minutes the fluorescence was measured at 485 nm excitation and 538 nm emission using a Fluoroscan II (Labsystems Diagnostics Oy, Helsinki, FinlandI). The IC50-values were calculated using sigmoidal dose response curves with nonlinear non-linear regression and 0/100 constraints in GraphPad Prism (GraphPad Software, San Diego, CA, United States). […]

Human type A RBCs = test: Hemolysis assay; assay type: cell-based
Experimental: Peptides were dissolved in water and serially diluted in PBS to give 20 μl test solutions in a 96-well U-bottomed microtiter plate (Nunc). Human type A RBCs (red blood cells) were washed with PBS and centrifuged at 1500 g for 60 s in a microcentrifuge several times until a clear supernatant was obtained. A 0.25% suspension of washed RBCs in PBS (100 μl) was added to the peptide solutions. The plate was incubated at 37°C for 1 h and centrifuged at 150 g for 5 min. Aliquots of 100 μl were transferred to a 96-well flat-bottomed microtiter plate (Falcon) and the absorbance was measured at 405 nm with an automatic Multiskan Ascent plate reader (Labsystems). The amount of hemolysis was calculated as the percentage of maximum lysis (1% Triton X-100 control) after adjusting for minimum lysis (PBS control). Synthetic melittin (Sigma) was used for comparison. The hemolytic dose necessary to lyse 50% of the RBCs (HD50) was calculated using the regression constant from the linear portion of the hemolytic titration curve (GraphPad Prism software).

[3] = system: Staphylococcus aureus ATCC 29213; conditions: ATCC 29213, 5 h
Experimental: (§1) The three bacterial strains: Escherichia coli ATCC 25922, Pseudomonas aeruginosa ATCC 27853 Staphylococcus aureus ATCC 29213 as well as the fungal strain Candida albicans ATCC 90028 derived from clinical wound infections were obtained from the Department of Clinical Bacteriology at Lund University Hospital.
(§2) Antimicrobial activities of the peptides were evaluated using the two-step microdilution assay ([Strömstedt et al., 2017]), which is designed for testing AMPs without activity-inhibiting components. Briefly, the microbial suspension was washed twice with 10 mM Tris buffer (set to pH 7.4 at 37°C). 96-well plates (U-shaped, untreated polystyrene) were prepared with peptide 2-fold serial dilutions in Tris buffer. The culture density was quantified by OD600, diluted in Tris buffer and 50,000 cells aliquoted to each well in the 96-well plate to a final 100 μl volume. After 5 h of aerobic incubation at 37°C, 5 μl of 20% TSB medium was added to each well (resulting in 1% TSB) and the plates were re-incubated. Growth-inhibition was monitored when controls produced pellet sizes of 2 mm in diameter (close to growth saturation), which equates to 5, 8, 10, and 12 h for E. coli, S. aureus, P. aeruginosa, and C. albicans, respectively. […] The MIC-values in Table 1, are medians from triplicate experiments, while the data presented in the Figure 2 are the same values relative to that of KR-12.

[4] = system: Candida albicans ATCC 90028; conditions: ATCC 90028, 5 h
Experimental: as §1, §2

[5] = system: Pseudomonas aeruginosa ATCC 27853; conditions: ATCC 27853, 5 h
Experimental: as §1, §2

[6] = system: Escherichia coli ATCC 25922; conditions: ATCC 25922, 5 h
Experimental: as §1, §2

in vitro = conditions: human, 25% human serum
Experimental: Proteolytic stability of the peptides were determined in diluted human serum (1:4 v/v, serum:PBS) at 37°C followed by LC-MS analysis. To examine the intact peptide after serum incubation, aliquots of each incubation mixture were taken at each time point for LC-MS analysis (Figure 5).
Peptide stability was assayed in diluted human serum. 25% human serum was centrifuged at 13,000 rpm for 10 min to remove lipids and the supernatant was collected and incubated at 37°C for 15 min. […] Eighty μl of 6 M urea was added and incubated at 4°C for a further 10 min. 80 μl of 20% TCA was added and incubated at 4°C for a further 10 min. The samples were centrifuged at 13000 g for 10 min and the supernatant was analyzed by LC-MS.

Row | SMILES | IC50 [1] [µM] | IC50 [2] [µM] | HC50 (hemolysis) (Human type A RBCs; red cells of human, 1 h) [µM] | MIC S. aureus [3] [µM] | MIC C. albicans [4] [µM] | MIC fung. [4] [µM] | MIC P. aeruginosa [5] [µM] | MIC E. coli [6] [µM] | MIC bact. [6] [µM] | remaining at 6 h (in vitro) [%] | HC50 (hemolysis) (Human type A RBCs) [µM]
1 | CC[C@H](C)[C@H](NC(=O)[C@H](CCCCN)NC(=O)[C@H](CCC(=O)O)NC(=O)[C@H](CCCCN)NC(=O)[C@H](CO)NC(=O)[C@H](CCCCN)NC(=O)[C@H](CCCNC(=N)N)NC(=O)[C@H](Cc1ccccc1)NC(=O)[C@H](Cc1ccccc1)NC(=O)[C@H](CC(=O)O)NC(=O)CNC(=O)[C@H](CC(C)C)NC(=O)[C@@H](N)CC(C)C)C(=O)NCC(=O)N[C@@H](CCCCN)C(=O)N[C@@H](CCC(=O)O)C(=O)N[C@@H](Cc1ccccc1)C(=O)N[C@@H](CCCCN)C(=O)N[C@@H](CCCNC(=N)N)C(=O)N[C@H](C(=O)N[C@H](C(=O)N[C@@H](CCC(N)=O)C(=O)N[C@@H](CCCNC(=N)N)C(=O)N[C@H](C(=O)N[C@@H](CCCCN)C(=O)N[C@@H](CC(=O)O)C(=O)N[C@@H](Cc1ccccc1)C(=O)N[C@@H](CC(C)C)C(=O)N[C@@H](CCCNC(=N)N)C(=O)N[C@@H](CC(N)=O)C(=O)N[C@@H](CC(C)C)C(=O)N[C@H](C(=O)N1CCC[C@H]1C(=O)N[C@@H](CCCNC(=N)N)C(=O)N[C@H](C(=O)N[C@@H](CCC(=O)O)C(=O)N[C@@H](CO)C(=O)O)[C@@H](C)O)C(C)C)[C@@H](C)CC)C(C)C)[C@@H](C)CC [LL-37] | 10 |  |  |  |  |  |  |  |  |  | 
2 | CC[C@H](C)[C@@H]1NC(=O)[C@H](CCCNC(=N)N)NC(=O)[C@H](CCCCN)NC(=O)[C@H](C(C)C)NC(=O)[C@H]([C@@H](C)CC)NC(=O)[C@H](CCCNC(=N)N)NC(=O)[C@H](CCCCN)NC(=O)CNC(=O)CNC(=O)[C@H](C)NC(=O)CNC(=O)[C@H](CCCNC(=N)N)NC(=O)[C@H](CC(C)C)NC(=O)[C@H](Cc2ccccc2)NC(=O)[C@H](CCCCN)NC(=O)[C@H](CCCCN)NC(=O)[C@H]([C@@H](C)CC)NC(=O)[C@H](CCCNC(=N)N)NC(=O)[C@H](CCCCN)NC(=O)[C@H](C(C)C)NC(=O)[C@H]([C@@H](C)CC)NC(=O)[C@H](CCCNC(=N)N)NC(=O)[C@H](CCCCN)NC(=O)CNC(=O)CNC(=O)[C@H](C)NC(=O)CNC(=O)[C@H](CCCNC(=N)N)NC(=O)[C@H](CC(C)C)NC(=O)[C@H](Cc2ccccc2)NC(=O)[C@H](CCCCN)NC(=O)[C@H](CCCCN)NC1=O [cd4(Q5K,D9K)] (cyclo(AGGKRIVKRIKKFLRGAGGKRIVKRIKKFLRG)) |  | 1 | 10 | 0.625 (≈ 2.26 µg/mL) | 1.25 (≈ 4.52 µg/mL) | 1.25 (≈ 4.52 µg/mL) | 0.625 (≈ 2.26 µg/mL) | 0.625 (≈ 2.26 µg/mL) | 0.63 (≈ 2.28 µg/mL) | ~50 | 
3 | CC[C@H](C)[C@@H]1NC(=O)[C@H](CCCNC(=N)N)NC(=O)[C@H](CCC(N)=O)NC(=O)[C@H](C(C)C)NC(=O)[C@H]([C@@H](C)CC)NC(=O)[C@H](CCCNC(=N)N)NC(=O)[C@H](CCCCN)NC(=O)CNC(=O)CNC(=O)[C@H](C)NC(=O)CNC(=O)[C@H](CCCNC(=N)N)NC(=O)[C@H](CC(C)C)NC(=O)[C@H](Cc2ccccc2)NC(=O)[C@H](CC(=O)O)NC(=O)[C@H](CCCCN)NC(=O)[C@H]([C@@H](C)CC)NC(=O)[C@H](CCCNC(=N)N)NC(=O)[C@H](CCC(N)=O)NC(=O)[C@H](C(C)C)NC(=O)[C@H]([C@@H](C)CC)NC(=O)[C@H](CCCNC(=N)N)NC(=O)[C@H](CCCCN)NC(=O)CNC(=O)CNC(=O)[C@H](C)NC(=O)CNC(=O)[C@H](CCCNC(=N)N)NC(=O)[C@H](CC(C)C)NC(=O)[C@H](Cc2ccccc2)NC(=O)[C@H](CC(=O)O)NC(=O)[C@H](CCCCN)NC1=O [cd4] (cyclo(AGGKRIVQRIKDFLRGAGGKRIVQRIKDFLRG)) |  | 5.1 |  | 1.25 (≈ 4.49 µg/mL) | 2.5 (≈ 8.98 µg/mL) | 2.5 (≈ 8.98 µg/mL) | 0.625 (≈ 2.25 µg/mL) | 0.625 (≈ 2.25 µg/mL) | 0.63 (≈ 2.26 µg/mL) | ~50 | > 40
